In ChEMBL document CHEMBL5360614, “Quinoline Thiourea-Based Zinc Ionophores with Antibacterial Activity” (J Med Chem, 2023):
Calls of active or inactive are those of the source. The calls are words filed in the database; no cut-off is given here.

Tests used:
Lipid bilayer [1] = assay: (§1) Induction of ionophore activity across EYPC:CHOL (8:2) large unilamellar vesicles assessed as transmembrane cation transport by measuring decrease in fluorescence intensity for HPTS dye preincubated for 3 mins followed by KCl addition and mesured after 7.5 mins by HPTS dye based fluorescence spectrophotometric analysis; details: time 10.5 min
Lipid bilayer [2] = assay: as §1, with “RbCl” for “KCl”; details: time 10.5 min
Lipid bilayer [3] = assay: as §1, with “CsCl” for “KCl”; details: time 10.5 min
Lipid bilayer [4] = assay: (§2) Induction of ionophore activity across EYPC:CHOL (8:2) large unilamellar vesicles assessed as transmembrane anion transport by measuring decrease in fluorescence intensity for HPTS dye at 10 uM preincubated for 3 mins followed by ZnCl2 addition and mesured after 7.5 mins by HPTS dye based fluorescence spectrophotometric analysis; details: filed as opener, time 10.5 min
Lipid bilayer [5] = assay: as §2, with “Zn2+ ion” for “anion”, “upto 25” for “at 10”; details: filed as opener, time 10.5 min
Lipid bilayer [6] = assay: as §2, with “as transmembrane Zn2+ ion transport by” for “as transmembrane anion transport by”, “3 mins in presence of FCCP followed by” for “3 mins followed by”; details: filed as opener, time 10.5 min
Escherichia coli = assay: Antibacterial activity against Escherichia coli MTCC 1687 assessed as reduction in bacterial growth incubated for 14 to 16 hrs by microbroth dilution method; assay type: functional; details: time 14-16 hrs
Staphylococcus aureus [7] = assay: Antibacterial activity against Staphylococcus aureus MTCC-96 assessed as reduction in bacterial growth incubated for 14 to 16 hrs in presence of 100 to 400 uM CsCl by microbroth dilution method; assay type: functional, organism-based; details: time 14-16 hrs
Staphylococcus aureus [8] = assay: Antibacterial activity against Staphylococcus aureus MTCC-96 assessed as reduction in bacterial growth incubated for 14 to 16 hrs in presence of 100 to 400 uM CuCl2 by microbroth dilution method; assay type: functional, organism-based; details: time 14-16 hrs
MCF-10A = assay: Cytotoxicity against human MCF-10A cells assessed as reduction in cell viability at 1 to 100 uM incubated for 44 hrs by MTT assay; assay type: toxicity, cell-based; details: dose 1-100 µM
MCF7 = assay: Cytotoxicity against human MCF7 cells assessed as reduction in cell viability at 1 to 100 uM incubated for 44 hrs by MTT assay; assay type: toxicity, cell-based; details: mcf7, 44 h, dose 1-100 µM
Staphylococcus aureus [9] = assay: In vivo antibacterial activity against Staphylococcus aureus MTCC-96 infected in Balb/c mouse assessed as less dilated portal vein in liver at 156.5 microM/Kg, iv for 7 days by hematoxylin and eosin staining based microscopic analysis; assay type: functional, organism-based; details: time 7.0 day
Staphylococcus aureus [10] = assay: In vivo antibacterial activity against Staphylococcus aureus MTCC-96 infected in Balb/c mouse assessed as uniform distribution of sinusoids in liver tissue at 31.6 microM/Kg, iv for 7 days in presence of ZnCl2 by hematoxylin and eosin staining based microscopic analysis; assay type: functional, organism-based; details: time 7.0 day
Staphylococcus aureus [11] = assay: Antibacterial activity against gentamicin-and methicillin-resistant Staphylococcus aureus ATCC 33592 assessed as reduction in bacterial growth incubated for 14 to 16 hrs in presence of 200 uM ZnCl2 by microbroth dilution method; assay type: functional; details: time 14-16 hrs

FC(F)(F)c1cc(NC(=S)Nc2cccc3ccc(-n4cnc5ccccc54)nc23)cc(C(F)(F)F)c1
Activity (Lipid bilayer [1]): inactive | Activity (Lipid bilayer [2]): inactive | Activity (Lipid bilayer [3]): inactive | Activity (Lipid bilayer [4]): Active | Activity (Lipid bilayer [5]): Active | Activity (Lipid bilayer [6]): Active | MIC (Escherichia coli): > 50 µM | Activity (Staphylococcus aureus [7]): inactive | Activity (Staphylococcus aureus [8]): inactive | Activity (MCF-10A): Non-Toxic | Activity (MCF7): Non-Toxic | Activity (Staphylococcus aureus [9]): Active | Activity (Staphylococcus aureus [10]): Active | MIC (Staphylococcus aureus [11]): 2 µM
